Results reported in patent US10273217B2, “Triazole derivatives” (Hoffmann-La Roche Inc., priority 2015, dated 2019).

Experiments:
human EAAT3 = biological target: T1, human EAAT3 (Homo sapiens, UniProt P43005); assay: FLIPR Membrane Potential (FMP) assay, antagonist potency at human EAAT3; format: cell-based; settings: HEK-293 cells stably expressing human EAAT3; L-glutamate as agonist at EC80; Kb from IC50 by Cheng-Prusoff equation
T1 construct: expressed in transfected cells
T1 sequence (P43005 1-524): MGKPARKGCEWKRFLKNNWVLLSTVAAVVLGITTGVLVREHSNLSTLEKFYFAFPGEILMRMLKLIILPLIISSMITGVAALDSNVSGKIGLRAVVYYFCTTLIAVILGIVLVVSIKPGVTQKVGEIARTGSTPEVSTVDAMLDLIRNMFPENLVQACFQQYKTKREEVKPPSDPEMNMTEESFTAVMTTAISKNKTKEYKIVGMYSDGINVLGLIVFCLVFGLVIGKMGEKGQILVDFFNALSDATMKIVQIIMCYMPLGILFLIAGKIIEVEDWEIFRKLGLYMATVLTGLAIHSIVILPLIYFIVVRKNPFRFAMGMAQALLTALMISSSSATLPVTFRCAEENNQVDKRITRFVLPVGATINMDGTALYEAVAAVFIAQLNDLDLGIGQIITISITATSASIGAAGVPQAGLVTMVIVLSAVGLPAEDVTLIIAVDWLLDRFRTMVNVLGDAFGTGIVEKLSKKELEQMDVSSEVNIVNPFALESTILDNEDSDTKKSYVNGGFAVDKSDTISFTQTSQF
Procedure: The FLIPR Membrane Potential (FMP) Assay
HEK-293 cells stably expressing human EAAT3 were seeded at 55 000 cells/well in growth medium (DMEM glutamate free (Invitrogen 11960-044), 1% Pen Strep (10 ml/l GIBCO BRL N°15140-023), 10% FCS non dialysed heat inactivated, 5 mg/l puromycin) in poly-D-lysine treated 96-well black microtiter plates with clear-bottom. After 24 h, the growth medium was removed and 100 μl/well of Krebs buffer (140 mM NaCl, 4.7 mM KCl, 2.5 mM CaCl2, 1.2 mM MgCl2, 11 mM HEPES, 10 mM D-glucose, pH=7.4) added. The cells were then loaded by adding 100 μl/well FMP assay dye (FLIPR Membrane Potential assay reagent, Molecular Devices). The 96-well plates were then incubated at 37° C. for 1 h. The depolarization of the cells will cause more dye to enter in the cells, where it will bind to intracellular proteins and lipids and cause an increase in the fluorescence signal. Antagonist potency at human EAAT3 was determined by using L-glutamate as agonist at a concentration which gives 80% of the maximum response. The antagonists were applied 15 min before the application of the agonist L-glutamate. The assays were performed at room temperature and measurements done by using a Fluorometric Imaging Plate Reader (FLIPR, Molecular Devices) and filter #2. Responses were measured as peak increase in fluorescence minus basal (i.e. fluorescence without addition of L-glutamate). Kb was determined using the Cheng-Prusoff equation Kb=IC50/[1+(A/EC50)], where IC50 is the concentration of the antagonist producing 50% inhibition, A is the concentration of the agonist against which the IC50 is being determined (at EC80) and EC50 is the concentration of the agonist producing 50% […].

SMILES	melting point	Kb (human EAAT3)
CC(C)c1nncn1-c1cc(C(=O)NC(C)(C)CO)cc(-c2ccc(Cl)cc2)c1 [Example 21, 3-(4-Chlorophenyl)-N-(1-hydroxy-2-methylpropan-2-yl)-5-(3-propan-2-yl-1,2,4-triazol-4-yl)-benzamide]	180 °C	0.23 µM
CC(C)(NC(=O)c1cc(-c2ccc(F)cc2)cc(-n2cnnc2)c1)C1CC1 [Example 3, N-(2-Cyclopropylpropan-2-yl)-3-(4-fluorophenyl)-5-(1,2,4-triazol-4-yl)-benzamide]	135.5 °C	0.39 µM
CCC(C)(C)NC(=O)c1cc(-c2ccc(F)cc2)cc(-n2cnnc2)c1 [Example 1, 3-(4-Fluorophenyl)-N-(2-methylbutan-2-yl)-5-(1,2,4-triazol-4-yl)-benzamide]	212 °C	0.088 µM
CC(C)(NC(=O)c1cc(-c2ccc(Cl)cc2)cc(-n2cnnc2CO)c1)C1CC1 [Example 37, 3-(4-Chlorophenyl)-N-(2-cyclopropyl-propan-2-yl)-5-[3-(hydroxymethyl)-1,2,4-triazol-4-yl]-benzamide]	120 °C	0.15 µM
CCC(C)(C)NC(=O)c1cc(-c2ccc(F)cc2)cc(-n2cnnc2C(C)C)c1 [Example 24, 3-(4-Fluorophenyl)-N-(2-methylbutan-2-yl)-5-(3-propan-2-yl-1,2,4-triazol-4-yl)-benzamide]	95 °C	0.054 µM
CC(C)c1nncn1-c1cc(C(=O)NC(C)(C)CO)cc(-c2ccc(F)cc2)c1 [Example 20, 3-(4-Fluorophenyl)-N-(1-hydroxy-2-methylpropan-2-yl)-5-(3-propan-2-yl-1,2,4-triazol-4-yl)-benzamide]	171.5 °C	0.39 µM
CC(C)(NC(=O)c1cc(-c2ccc(F)cc2)cc(-n2cnnc2)c1)C(F)(F)F [Example 4, 3-(4-Fluorophenyl)-5-(1,2,4-triazol-4-yl)-N-(1,1,1-trifluoro-2-methylpropan-2-yl)-benzamide]	147 °C	0.25 µM

The next lines start with the values.

melting point	Kb (human EAAT3)	SMILES
111 °C	0.15 µM	CC(C)(C)c1nncn1-c1cc(C(=O)NC(C)(C)C2CC2)cc(-c2ccc(F)cc2)c1 [Example 12, 3-(3-tert-Butyl-1,2,4-triazol-4-yl)-N-(2-cyclopropylpropan-2-yl)-5-(4-fluorophenyl)-benzamide]
235.5 °C	0.16 µM	Cc1nncn1-c1cc(C(=O)NC(C)(C)C)cc(-c2ccc(F)cc2)c1 [Example 5, N-tert-Butyl-3-(4-fluorophenyl)-5-(3-methyl-1,2,4-triazol-4-yl)-benzamide]
214 °C	0.33 µM	CC(C)c1nncn1-c1cc(C(=O)NC(C)(C)CO)cc(-c2ccc(C(F)(F)F)cc2)c1 [Example 22, N-(1-hydroxy-2-methylpropan-2-yl)-3-(3-propan-2-yl-1,2,4-triazol-4-yl)-5-[4-(trifluoromethyl)-phenyl]-benzamide]
242.5 °C	0.18 µM	CC(C)(C)c1nncn1-c1cc(C(=O)NC(C)(C)C2CC2)cc(-c2ccc(C(F)(F)F)cc2)c1 [Example 11, 3-(3-tert-Butyl-1,2,4-triazol-4-yl)-N-(2-cyclopropylpropan-2-yl)-5-[4-(trifluoromethyl)-phenyl]-benzamide]
280.5 °C	0.16 µM	CC(C)(C)NC(=O)c1cc(-c2ccc(C(F)(F)F)cc2)cc(-n2cnnc2C(C)(C)C)c1 [Example 10, N-tert-Butyl-3-(3-tert-butyl-1,2,4-triazol-4-yl)-5-[4-(trifluoromethyl)-phenyl]-benzamide]
